Test results published in PMC7983974 (Basic & Clinical Pharmacology & Toxicology, 2020).

Assays:
[1] = biological target: T1, UGT-mediated glucuronidation of molidustat in human liver microsomes (HLMs) (Homo sapiens, UniProt P22309); assay: Inhibition of M1 formation from molidustat in pooled human liver microsomes; type: in vitro ADME; details: pooled HLMs 0.3 mg/mL, molidustat 5 µmol/L, 30 min, N=1; Table 1
T1 sequence (P22309 26-533): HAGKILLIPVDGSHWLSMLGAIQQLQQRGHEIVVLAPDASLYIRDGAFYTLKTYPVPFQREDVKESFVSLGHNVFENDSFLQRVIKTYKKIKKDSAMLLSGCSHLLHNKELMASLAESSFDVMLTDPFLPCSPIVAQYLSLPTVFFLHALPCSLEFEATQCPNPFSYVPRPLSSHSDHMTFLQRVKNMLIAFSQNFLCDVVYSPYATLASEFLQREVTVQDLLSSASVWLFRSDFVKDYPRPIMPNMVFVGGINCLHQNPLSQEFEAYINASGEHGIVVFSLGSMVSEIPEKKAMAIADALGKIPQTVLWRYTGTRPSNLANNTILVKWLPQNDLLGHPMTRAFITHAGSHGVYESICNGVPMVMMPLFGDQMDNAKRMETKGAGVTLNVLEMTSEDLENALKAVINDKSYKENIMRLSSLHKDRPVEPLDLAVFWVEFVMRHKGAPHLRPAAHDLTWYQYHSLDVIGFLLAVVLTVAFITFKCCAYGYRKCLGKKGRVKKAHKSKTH

[2] = biological target: T2, UGT-mediated glucuronidation of molidustat (M1 formation) (Homo sapiens, UniProt P22309); assay: as above; type: in vitro ADME; details: human, pooled human liver microsomes, probe molidustat 5 µmol/L (formation of M1), IC50, pooled HLMs 0.3 mg/mL, N=1, Table 1
T2 sequence (P22309 26-533): T1 sequence (P22309 26-533)

[3] = system: pooled human liver microsomes; assay: Isoform-specific UGT inhibitors on M1 formation in human liver microsomes; type: in vitro ADME; details: inhibitor 10 µmol L^−1; for inhibitory activity on M1 formation: liver, intestine and kidney microsomes
[4] = system: molidustat glucuronidation (clearance); assay: In vitro-in vivo scaling: predicted increase in molidustat AUC; set-up: species or system human; details: fm 0.9; unbound hepatic inlet concentration, ka 0.1 min^−1
[5] = cited from earlier work
[6] = system: pooled human kidney microsomes; assay: Isoform-specific UGT inhibitors on M1 formation in human kidney microsomes; type: in vitro ADME; details: inhibitor 10 µmol L^−1; molidustat 4.9 µmol L^−1; n = 2
[7] = system: pooled human intestine microsomes; assay: Isoform-specific UGT inhibitors on M1 formation in human intestine microsomes; type: in vitro ADME; details: inhibitor 10 µmol L^−1; molidustat 4.9 µmol L^−1; n = 2

Compound	IC50 [1] [µM]	IC50 at 30 min [2] [µM]	inhibitory activity on M1 formation [3]	also measured
C#C[C@]1(O)CC[C@H]2[C@@H]3CCc4cc(O)ccc4[C@H]3CC[C@@]21C [17a‐Ethynylestradiol]	10.8	–	–	–
Cc1ccc(C)c(OCCCC(C)(C)C(=O)O[C@@H]2O[C@H](C(=O)O)[C@@H](O)[C@H](O)[C@H]2O)c1 [Gemfibrozil glucuronide]	96.1	–	–	–
Cc1cccc(Nc2ccccc2C(=O)O)c1C [Mefenamic acid]	–	16	none or very little activity	–
Cc1cn(-c2cc(NC(=O)c3ccc(C)c(Nc4nccc(-c5cccnc5)n4)c3)cc(C(F)(F)F)c2)cn1 [Nilotinib]	–	0.17	–	AUCRinlet, ka 0.1 min^−1 (estimated increase in molidustat AUC) [4]: more than fivefold
Cc1c(F)cccc1NC(=O)Nc1ccc(Cl)c(S(=O)(=O)[C@H]2CCCNC2)c1O [danirixin]	–	–	–	drug excreted as glucuronides [5]: approximately 90%; recovered as directly conjugated parent compound [5]: 80%
Hecogenin	–	–	none or very little activity	M1 formation in % of control in microsomal tissue, Kidney [6]: 102.4%; M1 formation in % of control in microsomal tissue, Liver ([3]; molidustat 4.9 µmol L^−1, n = 2): 104.7%; M1 formation in % of control in microsomal tissue, Intestine [7]: 106.0%
